From US20150105252A1, “SUBSTITUTED PYRAZOLES AS HERBICIDES” (E I DU PONT DE NEMOURS AND COMPANY, priority 2013, published 2015)

Tests used:
pigweed = experiment: Test A preemergence; assay type: in vivo, Amaranthus retroflexus; conditions: for Pigweed plant response rating (0 to 100 scale): visual injury approx. 10 days after treatment
Procedure, shortened: (§1)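 Growth medium: loam soil blended with sand. Preemergence treatment used a directed soil spray right after planting; postemergence treatment targeted seedlings at one to two leaves (2–10 cm height). Response was judged by eye relative to untreated plants about 10 days later on a 0–100 control scale.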

foxtail, giant = experiment: Test C preemergence; assay type: in vivo, Setaria faberii
Description: (§2) Seeds of plant species selected from blackgrass (Alopecurus myosuroides), ryegrass, Italian (Italian ryegrass, Lolium multiflorum), wheat (winter wheat, Triticum aestivum), galium (catchweed bedstraw, Galium aparine), corn (Zea mays), crabgrass, large (large crabgrass, Digitaria sanguinalis), foxtail, giant (giant foxtail, Setaria faberii), johnsongrass (Sorghum halepense), lambsquarters (Chenopodium album), morningglory (Ipomoea coccinea), nutsedge, yellow (yellow nutsedge, Cyperus esculentus), pigweed (redroot pigweed, Amaranthus retroflexus), ragweed (common ragweed, Ambrosia elation), soybean (Glycine max), barnyardgrass (Echinochloa crus-galli), oilseed rape (Brassica napus), waterhemp (common waterhemp, Amaranthus rudis), oat, wild (wild oat, Avena fatua), kochia (Kochia scoparia), Surinam grass (Brachiaria decumbens), foxtail, green (green foxtail, Setaria viridis), goosegrass (Eleusine indica), bromegrass, downy (downy bromegrass, Bromus tectorum), nightshade (eastern black nightshade, Solanum ptycanthum), cocklebur (common cocklebur, Xanthium strumarium), cupgrass, woolly (woolly cupgrass, Eriochloa villosa), bermudagrass (Cynodon dactylon), sunflower, (common oilseed sunflower, Helianthus annuus), Russian thistle (Salsola kali), and velvetleaf (Abutilon theophrasti) were planted into a blend of loam soil and sand and treated preemergence with test chemicals formulated in a non-phytotoxic solvent mixture which included a surfactant.
(§3) At the same time, plants selected from these crop and weed species and also chickweed (common chickweed, Stellaria media), canarygrass (littleseed canarygrass, Phalaris minor), and deadnettle (henbit deadnettle, Lamium amplexicaule), were planted in pots containing Redi-Earth® planting medium (Scotts Company, 14111 Scottslawn Road, Marysville, Ohio 43041) comprising spaghnum peat moss, vermiculite, wetting agent and starter nutrients and treated with postemergence applications of test chemicals formulated in the same manner. Plants ranged in height from 2 to 18 cm (1- to 4-leaf stage) for postemergence treatments. Treated plants and controls were maintained in a greenhouse for 13 to 15 days, after which time all species were compared to controls and visually evaluated. Plant response ratings, summarized in Table C, are based on a scale of 0 to 100 where 0 is no effect and 100 is complete control. A dash (-) response means no test result.

galium = experiment: Test C postemergence; assay type: in vivo, Galium aparine; conditions: for Plant response rating (scale of 0 to 100 where 0 is no effect and 100 is complete control), Galium: Postemergence, 31 g ai/ha, visually evaluated after 13 to 15 days; for Galium plant response rating / Plant response rating, Galium: postemergence; for Galium plant response rating: 62 g ai/ha, scale 0 to 100
Description: as §2, §3

nutsedge, yellow = experiment: Test C preemergence; assay type: in vivo, Cyperus esculentus
Description: as §2, §3

morningglory = experiment: Test A preemergence; assay type: in vivo, Ipomoea spp.; conditions: for Morningglory plant response rating (0 to 100 scale): visual injury approx. 10 days after treatment
Procedure, shortened: as §1

barnyardgrass = experiment: Test C preemergence; assay type: in vivo, Echinochloa crus-galli
Description: as §2, §3

[1] = preemergence, 125 g ai/ha, visual injury, 0 to 100 scale, approx. 10 days
[2] = preemergence, 500 g ai/ha, visual injury after approx. 10 days, 0 to 100 scale (0 no effect, 100 complete control)
[3] = preemergence, 31 g ai/ha, visual rating, scale 0 to 100 (0 no effect, 100 complete control), 13 to 15 days
[4] = preemergence, 62 g ai/ha, scale 0 to 100 (0 no effect, 100 complete control), 13 to 15 days
[5] = preemergence, 125 g ai/ha, scale 0 to 100, 0 is no effect, 100 is complete control
[6] = 250 g ai/ha, scale 0 to 100 (0 no effect, 100 complete control)
[7] = 125 g ai/ha, scale 0 to 100, 0 no effect, 100 complete control
[8] = preemergence, 31 g ai/ha, scale 0 to 100 (0 no effect, 100 complete control), 13 to 15 days
[9] = preemergence, 125 g ai/ha, 13 to 15 days, scale 0 to 100, 0 = no effect, 100 = complete control
[10] = preemergence, 250 g ai/ha, scale 0 to 100, 0 is no effect, 100 is complete control
[11] = Preemergence, 1000 g ai/ha, 0 to 100 scale, 0 no effect, 100 complete control
[12] = Preemergence, 4 g ai/ha, scale 0 to 100
[13] = Preemergence, 8 g ai/ha, scale 0 to 100
[14] = Preemergence, 16 g ai/ha, scale 0 to 100

| Compound | Pigweed plant response rating (pigweed; [1]) | Pigweed plant response rating (pigweed; [2]) | Foxtail, Giant plant response rating (foxtail, giant; [3]) | Foxtail, Giant plant response rating (foxtail, giant; [4]) | Plant response rating (scale of 0 to 100 where 0 is no effect and 100 is complete control), Galium (galium) | Galium plant response rating (galium) | Plant response rating, Galium (galium; [6]) | Plant response rating, Galium (galium; [7]) | Nutsedge, Yellow plant response rating (nutsedge, yellow; [3]) | Nutsedge, Yellow plant response rating (nutsedge, yellow; [4]) | Morningglory plant response rating (morningglory; [2]) | Barnyardgrass plant response rating (barnyardgrass; [8]) | Barnyardgrass plant response rating (barnyardgrass; [4]) | Plant response rating, Foxtail, Giant (foxtail, giant; [9]) | Foxtail, Giant plant response rating (foxtail, giant; [10]) | Plant response rating, Nutsedge, Yellow (nutsedge, yellow; [9]) | Nutsedge, Yellow plant response rating (nutsedge, yellow; [10]) | Plant response rating, Barnyardgrass (barnyardgrass; [9]) | Barnyardgrass plant response rating (barnyardgrass; [10]) | also measured |
| --- | --- | --- | --- | --- | --- | --- | --- | --- | --- | --- | --- | --- | --- | --- | --- | --- | --- | --- | --- | --- |
| CCc1cc(C(=O)NCC(F)(F)F)nn1Cc1nc(C(F)(F)F)nn1C [Compound 107] | 100 | 100 | 100 | 100 | 50 | 85 | 90 | 90 | 15 | 60 | 100 | 40 | 100 |  |  |  |  |  |  | Plant response rating (scale of 0 to 100), Foxtail, Giant (foxtail, giant; Preemergence, 250 g ai/ha): 100; Foxtail, Giant plant response rating (foxtail, giant; [5]): 100; Plant response rating (scale of 0 to 100), Nutsedge, Yellow (nutsedge, yellow; Preemergence, 250 g ai/ha): 100; Nutsedge, Yellow plant response rating (nutsedge, yellow; [5]): 85; Morningglory plant response rating (morningglory; [1]): 90; Plant response rating (scale of 0 to 100), Barnyardgrass (barnyardgrass; Preemergence, 250 g ai/ha): 100; Barnyardgrass plant response rating (barnyardgrass; [5]): 100 |
| CCNC(=O)c1cc(CC)n(Cc2cc(C(F)(F)F)nn2C)n1 [Compound 154] |  | 100 | 30 | 90 | 50 | 50 | 85 | 65 | 0 | 15 | 100 |  | 95 | 100 | 100 | 35 | 60 | 100 | 100 | Pigweed plant response rating (0 to 100 scale) (pigweed; preemergence, 125 g ai/ha): 100; Morningglory plant response rating (0 to 100 scale) (morningglory; preemergence, 125 g ai/ha): 100; Barnyardgrass plant response rating (barnyardgrass; [3]): 55 |
| CCc1cc(C(=O)NOC(C)C)nn1Cc1ccnc(OC(F)F)c1 [Compound 126] | 100 | 100 | 45 | 85 | 50 | 50 | 70 | 55 | 25 | 45 |  | 75 | 100 |  |  |  |  |  |  | Plant response rating (scale of 0 to 100), Foxtail, Giant (foxtail, giant; Preemergence, 250 g ai/ha): 100; Foxtail, Giant plant response rating (foxtail, giant; [5]): 98; Plant response rating (scale of 0 to 100), Nutsedge, Yellow (nutsedge, yellow; Preemergence, 250 g ai/ha): 90; Nutsedge, Yellow plant response rating (nutsedge, yellow; [5]): 75; Plant response rating (scale of 0 to 100), Barnyardgrass (barnyardgrass; Preemergence, 250 g ai/ha): 100; Barnyardgrass plant response rating (barnyardgrass; [5]): 100 |
| CCCNC(=O)c1cc(OCC)n(Cc2ccnc(OC(F)F)c2)n1 [Compound 136] | 100 | 100 | 100 | 100 | 60 | 60 | 80 | 60 | 30 | 35 |  | 75 | 100 | 100 | 100 | 50 | 85 | 100 | 100 |  |
| O=C(NCC(F)(F)F)c1cc(CCF)n(Cc2ccnc(C(F)(F)F)c2)n1 [Compound 175] |  | 100 | 75 | 100 |  |  |  |  | 10 | 55 | 100 |  | 80 | 100 | 100 | 70 | 98 | 100 | 100 | Pigweed plant response rating (0 to 100 scale) (pigweed; preemergence, 125 g ai/ha): 100; Morningglory plant response rating (0 to 100 scale) (morningglory; preemergence, 125 g ai/ha): 100; Barnyardgrass plant response rating (barnyardgrass; [3]): 80 |
| CCCNC(=O)c1cc(CC)n(Cc2cccc(OC(F)(F)F)c2)n1 [Compound 27] |  |  |  |  |  |  |  |  |  |  |  |  |  |  |  |  |  |  |  | Pigweed plant response rating (pigweed; [11]): 90; Morningglory plant response rating (morningglory; [11]): 90 |
| CCOc1cc(C(=O)NCC(F)(F)F)nn1Cc1cc(C(F)(F)F)nn1C [Compound 140] | 100 | 100 | 70 |  |  |  |  |  | 15 |  | 100 | 80 |  |  |  |  |  |  |  | Plant response rating, Foxtail, Giant (foxtail, giant; [12]): 20; Plant response rating, Foxtail, Giant (foxtail, giant; [13]): 40; Plant response rating, Foxtail, Giant (foxtail, giant; [14]): 75; Plant response rating, Nutsedge, Yellow (nutsedge, yellow; [12]): 0; Plant response rating, Nutsedge, Yellow (nutsedge, yellow; [13]): 15; Plant response rating, Nutsedge, Yellow (nutsedge, yellow; [14]): 0; Morningglory plant response rating (morningglory; [1]): 80; Plant response rating, Barnyardgrass (barnyardgrass; [12]): 0; Plant response rating, Barnyardgrass (barnyardgrass; [13]): 5; Plant response rating, Barnyardgrass (barnyardgrass; [14]): 30 |
| CCc1cc(C(=O)NCC(F)(F)F)nn1Cc1cccc(OC(F)(F)F)c1 [Compound 20] |  |  |  |  |  |  |  |  |  |  |  |  |  |  |  |  |  |  |  | Pigweed plant response rating (pigweed; [11]): 100; Morningglory plant response rating (morningglory; [11]): 70 |
